Here are results for 15 compounds from patent US20250296939A1, “BENZOTHIOPHENE COMPOUND” (Kyoto Pharmaceutical Industries, Ltd., priority 2022, published 2025).

The test system of assay [1] is NQO1 activity in Hepa1c1c7 cells. Put plainly: NAD(P)H: quinone oxidoreductase-1 (NQO1) enzyme induction assay (in vitro). The format is cell-based, mouse. Conditions: Mus musculus, Hepa-1c1c7, NQO1 activity upon addition of 400 nM of test compound, about 48 hr, ratio from the base without the compound. Here is the method: Experimental Example 2: NAD(P)H: Quinone Oxidoreductase-1 (NQO1) Enzyme Induction Assay (In Vitro)
The NQO1 assay was performed based on a previous report (Methods in Enzymology 2004; 382: 243-258). Hepa1c1c7 cells (mouse hepatocyte cell line, ATCC, cat. no. CRL-2026) were cultured in D-MEM medium containing 10% FBS and 1% penicillin/streptomycin (5% CO2, 37° C.), and seeded into 96-well plates (Corning REF. 353072) at 1×10^4 cells/well. A portion of the wells were prepared with medium only for background measurement without seeding cells. The next day, 400 nM of the test compound (0.004% of the final concentration in DMSO) dissolved in DMSO was added thereto, and the wells were incubated for about 48 hr. A well without adding the test compound was prepared for base activity assay in part.
Cell lysate (solution containing 0.8% digitonin, 2 mM EDTA), reaction solution (solution containing 25 mM Tris-HCl, 0.07% albumin, 0.01% Tween-20, 2 U/mL glucose-6-phosphate dehydrogenase, 5 μM flavin adenine dinucleotide, 1 μM glucose-6-phosphate, 30 μM nicotinamide adenine dinucleotide phosphate, 0.03% 3-(4,5-dimethyl-2-thiazolyl)-2,5-diphenyltetrazolium bromide (MTT), and 50 μM menadione), stop solution (solution containing 0.3 mM dicoumarol and 5 mM potassium dihydrogen phosphate, pH 7.4) were prepared. After the medium was removed, 50 μL of the cell lysate was added and incubated at 37° C. for 10 minutes, followed by shaking at room temperature for 10 minutes. 200 μL of reaction solution was added thereto, and allowed to stand for 5 minutes at room temperature. 50 μL of the stop solution was added thereto, and absorbance was measured at 610 nm on a SpectraMax PLUS384 (Molecular devices) or POWERSCAN HT (DS Pharma Biomedical). The test results were analyzed in Excel, and the NQO1 activity upon addition of 400 nM of test compound was calculated as a ratio from the base without the compound.
The results of each test compound in this test are shown in the following Table 2 (A: 5<NQO1 activity ratio, B: 3<NQO1 activity ratio 5, C: 1.5<NQO1 activity ratio 3).

The target of assay [2] is GST-fused human Keap1 (amino acid residues: 325-642) protein (Homo sapiens (Human), UniProt Q14145). The assay can be described thus: FP assay (in vitro): inhibition of binding between Nrf2 and Keap1 by fluorescence polarization. The note with it: 20 nM GST-fused human Keap1, 10 nM FITC-labeled Nrf2 peptide, 2 hr at room temperature. The procedure:
Experimental Example 1: FP Assay (In Vitro)
The inhibitory activity of test compounds on the binding between Nrf2 and Keap1 was determined by fluorescence polarization. A solution of 50 mM Tris-HCl pH.8.0 (NACALAI, REF: 06938-15), and 5 mM DTT (SIGMA-ALDRICH, REF: 646563-10X.5 mL) was used as a buffer solution. 8 μL of a buffer solution containing 40 nM GST-fused human Keap1 (amino acid residues: 325-642) protein (Protein tech, REF: Ag0779) was taken in a black 384-well plate (final concentration 20 nM), and 4 μL of the test compound solution prepared to each concentration in buffer solution was added thereto. A well containing a portion of the buffer solution without Keap1 was placed as a negative control. A well with no compound was used as a positive control. 40 nM of FITC-labeled Nrf2 peptide (FITC-X-LQLDEETGEFLPIQ (X=ε-Acp), Peptide Institute Inc.) was added thereto (10 nM final concentration). The wells were incubated at room temperature for 2 hr, and then fluorescence polarization was measured with a plate reader SPECTRAMAX Paradigm (Molecular devices) at excitation wavelength of 485 nm and fluorescence wavelength of 535 nm. The fluorescence polarization of the negative control was set to 100% inhibition and that of the positive control to 0% inhibition, and the inhibitory rate upon addition of the test compound was calculated using the following formula.

Structures are written as SMILES.

GST-fused human Keap1 (amino acid residues: 325-642) protein, sequence (Q14145 325-624 limits assumed): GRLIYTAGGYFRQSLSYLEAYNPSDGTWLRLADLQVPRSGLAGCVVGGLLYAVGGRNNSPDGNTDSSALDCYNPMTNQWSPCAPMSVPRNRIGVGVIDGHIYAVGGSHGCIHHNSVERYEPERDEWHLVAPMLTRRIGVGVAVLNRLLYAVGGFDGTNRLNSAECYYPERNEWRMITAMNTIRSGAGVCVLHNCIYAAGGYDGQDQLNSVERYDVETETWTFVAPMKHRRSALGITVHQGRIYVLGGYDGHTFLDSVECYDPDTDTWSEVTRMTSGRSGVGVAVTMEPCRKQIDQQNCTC

Consider `CC[C@@H]1CN(Cc2cc([C@@H](CC(=O)O)c3cc(OC)c4c(nnn4C)c3C)cc3ccsc23)Cc2nc(O)ccc2O1` [Example 21, (3R)-3-(7-{[(2R)-2-Ethyl-7-hydroxy-2,3-dihydropyrido[2,3-f][1,4]oxazepin-4(5H)-yl]methyl}-1-benzothiophen-5-yl)-3-(7-methoxy-1,4-dimethyl-1H-benzotriazol-5-yl)propanoic acid], for which the fold induction at 0.4 µM in assay [1] was more than 5. Further, the IC50 in assay [2] was 10 to 30 nM.

In the case of `CC[C@@H]1CN(Cc2cc([C@H](CC(=O)O)c3cc(OC)c4c(nnn4C)c3C)cc3ccsc23)Cc2nc(O)ccc2O1` [Example 22, (3S)-3-(7-{[(2R)-2-Ethyl-7-hydroxy-2,3-dihydropyrido[2,3-f][1,4]oxazepin-4(5H)-yl]methyl}-1-benzothiophen-5-yl)-3-(7-methoxy-1,4-dimethyl-1H-benzotriazol-5-yl)propanoic acid], the fold induction at 0.4 µM in assay [1] is 3 to 5. The compound further returned a half-inhibitory concentration (IC50) in assay [2] not above 10 nM.

With `CC[C@@H]1CN(Cc2cc([C@@H](CC(=O)O)c3cnc4c(nnn4C)c3C)cc3ccsc23)Cc2nc(O)ccc2O1` [Example 23, (3R)-3-(3,7-Dimethyl-3H-[1,2,3]triazolo[4,5-b]pyridin-6-yl)-3-(7-{[(2R)-2-ethyl-7-hydroxy-2,3-dihydropyrido[2,3-f][1,4]oxazepin-4(5H)-yl]methyl}-1-benzothiophen-5-yl)propanoic acid], the fold induction at 0.4 µM in assay [1] fell in the range of 3 to 5. The compound further registered an IC50 in assay [2] of 30 to 300 nM.

For the compound `CC[C@@H]1CN(Cc2cc([C@H](CC(=O)O)c3cnc4c(nnn4C)c3C)cc3ccsc23)Cc2nc(O)ccc2O1` [Example 24, (3S)-3-(3,7-Dimethyl-3H-[1,2,3]triazolo[4,5-b]pyridin-6-yl)-3-(7-{[(2R)-2-ethyl-7-hydroxy-2,3-dihydropyrido[2,3-f][1,4]oxazepin-4(5H)-yl]methyl}-1-benzothiophen-5-yl)propanoic acid], the fold induction at 0.4 µM in assay [1] is 3 to 5. The IC50 in assay [2] is 10 to 30 nM.

Turning to `CC[C@@H]1CN(Cc2cc([C@@H](CC(=O)O)c3ccc4c(nnn4CCN(C)C)c3C)cc3ccsc23)Cc2nc(O)ccc2O1` [Example 25, (3R)-3-{1-[2-(Dimethylamino)ethyl]-4-methyl-1H-benzotriazol-5-yl}-3-(7-{[(2R)-2-ethyl-7-hydroxy-2,3-dihydropyrido[2,3-f][1,4]oxazepin-4(5H)-yl]methyl}-1-benzothiophen-5-yl)propanoic acid], the fold induction at 0.4 µM in assay [1] was more than 5. In assay [2], this compound had an IC50 of 10 to 30 nM.

On to `CC[C@@H]1CN(Cc2cc([C@H](CC(=O)O)c3ccc4c(nnn4CCN(C)C)c3C)cc3ccsc23)Cc2nc(O)ccc2O1` [Example 26, (3S)-3-{1-[2-(Dimethylamino)ethyl]-4-methyl-1H-benzotriazol-5-yl}-3-(7-{[(2R)-2-ethyl-7-hydroxy-2,3-dihydropyrido[2,3-f][1,4]oxazepin-4(5H)-yl]methyl}-1-benzothiophen-5-yl)propanoic acid], for which the fold induction at 0.4 µM in assay [1] was 3 to 5. The compound also had an IC50 in assay [2] of 10 to 30 nM.

In the case of `CC[C@@H]1CN(Cc2cc([C@@H](CC(=O)O)c3cc(C(F)(F)F)c4c(nnn4C)c3C)cc3ccsc23)Cc2nc(O)ccc2O1` [Example 29, (3R)-3-[1,4-Dimethyl-7-(trifluoromethyl)-1H-benzotriazol-5-yl]-3-(7-{[(2R)-2-ethyl-7-hydroxy-2,3-dihydropyrido[2,3-f][1,4]oxazepin-4(5H)-yl]methyl}-1-benzothiophen-5-yl)propanoic acid], the fold induction at 0.4 µM in assay [1] is more than 5. The IC50 in assay [2] fell in the range of 10 to 30 nM.

In the case of `CC[C@@H]1CN(Cc2cc([C@H](CC(=O)O)c3cc(C(F)(F)F)c4c(nnn4C)c3C)cc3ccsc23)Cc2nc(O)ccc2O1` [Example 30, (3S)-3-[1,4-Dimethyl-7-(trifluoromethyl)-1H-benzotriazol-5-yl]-3-(7-{[(2R)-2-ethyl-7-hydroxy-2,3-dihydropyrido[2,3-f][1,4]oxazepin-4(5H)-yl]methyl}-1-benzothiophen-5-yl)propanoic acid], the fold induction at 0.4 µM in assay [1] was more than 5. For the same compound, the 50% inhibitory concentration (IC50) in assay [2] was 10 to 30 nM.

For the compound `CC[C@@H]1CN(Cc2cc([C@@H](CC(=O)O)c3cc(Cl)c4c(nnn4C)c3C)cc3ccsc23)Cc2nc(O)ccc2O1` [Example 31, (3R)-3-(7-Chloro-1,4-dimethyl-1H-benzotriazol-5-yl)-3-(7-{[(2R)-2-ethyl-7-hydroxy-2,3-dihydropyrido[2,3-f][1,4]oxazepin-4(5H)-yl]methyl}-1-benzothiophen-5-yl)propanoic acid], the fold induction at 0.4 µM in assay [1] is more than 5. The compound further had a 50% inhibitory concentration (IC50) in assay [2] not above 10 nM.

Turning to `CC[C@@H]1CN(Cc2cc([C@H](CC(=O)O)c3cc(Cl)c4c(nnn4C)c3C)cc3ccsc23)Cc2nc(O)ccc2O1` [Example 32, (3S)-3-(7-Chloro-1,4-dimethyl-1H-benzotriazol-5-yl)-3-(7-{[(2R)-2-ethyl-7-hydroxy-2,3-dihydropyrido[2,3-f][1,4]oxazepin-4(5H)-yl]methyl}-1-benzothiophen-5-yl)propanoic acid], in assay [1], the fold induction at 0.4 µM is more than 5. The compound also registered an IC50 in assay [2] of 10 to 30 nM.

On to `CC[C@@H]1CN(Cc2cc([C@@H](CC(=O)O)c3cc(C#N)c4c(nnn4C)c3C)cc3ccsc23)Cc2nc(O)ccc2O1` [Example 33, (3R)-3-(7-Cyano-1,4-dimethyl-1H-benzotriazol-5-yl)-3-(7-{[(2R)-2-ethyl-7-hydroxy-2,3-dihydropyrido[2,3-f][1,4]oxazepin-4(5H)-yl]methyl}-1-benzothiophen-5-yl)propanoic acid], for which the fold induction at 0.4 µM in assay [1] is more than 5. The IC50 in assay [2] was in the range of 10 to 30 nM.

For the compound `CC[C@@H]1CN(Cc2cc([C@H](CC(=O)O)c3cc(C#N)c4c(nnn4C)c3C)cc3ccsc23)Cc2nc(O)ccc2O1` [Example 34, (3S)-3-(7-Cyano-1,4-dimethyl-1H-benzotriazol-5-yl)-3-(7-{[(2R)-2-ethyl-7-hydroxy-2,3-dihydropyrido[2,3-f][1,4]oxazepin-4(5H)-yl]methyl}-1-benzothiophen-5-yl)propanoic acid], the fold induction at 0.4 µM in assay [1] fell in the range of 3 to 5. The same compound showed an IC50 in assay [2] of 10 to 30 nM.

`CC[C@@H]1CN(Cc2cc([C@@H](CC(=O)O)c3cc(C4CC4)c4c(nnn4C)c3C)cc3ccsc23)Cc2nc(O)ccc2O1` [Example 35, (3R)-3-(7-Cyclopropyl-1,4-dimethyl-1H-benzotriazol-5-yl)-3-(7-{[(2R)-2-ethyl-7-hydroxy-2,3-dihydropyrido[2,3-f][1,4]oxazepin-4(5H)-yl]methyl}-1-benzothiophen-5-yl)propanoic acid]: the fold induction at 0.4 µM in assay [1] is more than 5. In assay [2], the IC50 lay within 10 to 30 nM.

On to `CC[C@@H]1CN(Cc2cc([C@H](CC(=O)O)c3cc(C4CC4)c4c(nnn4C)c3C)cc3ccsc23)Cc2nc(O)ccc2O1` [Example 36, (3S)-3-(7-Cyclopropyl-1,4-dimethyl-1H-benzotriazol-5-yl)-3-(7-{[(2R)-2-ethyl-7-hydroxy-2,3-dihydropyrido[2,3-f][1,4]oxazepin-4(5H)-yl]methyl}-1-benzothiophen-5-yl)propanoic acid], for which the fold induction at 0.4 µM in assay [1] was more than 5. In assay [2], this compound had an IC50 of 10 to 30 nM.

Turning to `Cc1c([C@H](CC(=O)O)c2cc(CN3Cc4nc(O)ccc4O[C@H](C(F)(F)F)C3)c3sccc3c2)ccc2c1nnn2C` [Example 37, (3R)-3-(1,4-Dimethyl-1H-benzotriazol-5-yl)-3-(7-{[(2S)-7-hydroxy-2-(trifluoromethyl)-2,3-dihydropyrido[2,3-f][1,4]oxazepin-4(5H)-yl]methyl}-1-benzothiophen-5-yl)propanoic acid], in assay [1], the fold induction at 0.4 µM is more than 5. In addition, in assay [2], the IC50 is 10 to 30 nM.
